Values quoted from earlier work as cited in patent US10976310B2, “Ligand identification by co-fractionation” (MAX-PLANCK-GESELLSCHAFT ZUR FÖRDERUNG DER WISSENSCHAFTEN …, priority 2016, dated 2021).

Target: T1, PYR1 receptor (Arabidopsis thaliana, UniProt O49686)
T1 sequence (O49686 1-191): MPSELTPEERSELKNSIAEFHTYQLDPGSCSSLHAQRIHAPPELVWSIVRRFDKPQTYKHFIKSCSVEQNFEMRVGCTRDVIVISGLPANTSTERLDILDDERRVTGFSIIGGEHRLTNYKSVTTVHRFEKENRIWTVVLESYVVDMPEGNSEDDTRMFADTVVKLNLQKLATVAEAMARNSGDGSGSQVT
Conditions: Dupeux et al. (2011); read-out: Kd of binding to PYR1; cited from earlier work

## CC1=CC(=O)CC(C)(C)[C@@]1(O)/C=C/C(C)=C\C(=O)O [abscisic acid]
  Kd: 97 µM
